Measured values: PubChem BioAssay AID1963982 (Molecular Pharmacology Branch, DTP, NCI, 2024)
Values joined by “and” are separate entries in the source; they are usually repeats but may differ in a detail not shown here. Equal values may be shown once.

Tested on: 313798-341-R-J2-PDC spheroids, viability
Experiment: Anticancer human tumor 313798-341-R-J2-PDC patient-derived cervical squamous cell carcinoma cell line growth inhibition [PI3K]
Settings: spheroids with HUVEC and MSC; for viability, T/C: stronger effect = lower value; active = viability on the fitted dose curve at most 10% of control; inactive = the rest
Method in brief: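 Agents were dosed from a top concentration near clinical Cmax (otherwise 10 microM) in half-log decrements, alone or combined with PI3K inhibitors. The spheroids contain tumor cells plus endothelial (HUVEC) and MSC stroma; viability is measured.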

[1] = curve of first compound, second compound 0.0316 µM
[2] = curve of first compound, second compound 0.1 µM
[3] = curve of first compound, second compound 0.316 µM
[4] = curve of first compound, second compound 1 µM
[5] = second compound 0.0316 µM, first compound 0.0316 µM
[6] = second compound 0.0316 µM, first compound 0.1 µM
[7] = second compound 0.0316 µM, first compound 0.316 µM
[8] = second compound 0.0316 µM, first compound 1 µM
[9] = second compound 0.0316 µM, first compound 3.16 µM
[10] = second compound 0.0316 µM, first compound 10 µM
[11] = second compound 0.1 µM, first compound 0.0316 µM
[12] = second compound 0.1 µM, first compound 0.1 µM
[13] = second compound 0.1 µM, first compound 0.316 µM
[14] = second compound 0.1 µM, first compound 1 µM
[15] = second compound 0.1 µM, first compound 3.16 µM
[16] = second compound 0.1 µM, first compound 10 µM
[17] = second compound 0.316 µM, first compound 0.0316 µM
[18] = second compound 0.316 µM, first compound 0.1 µM
[19] = second compound 0.316 µM, first compound 0.316 µM
[20] = second compound 0.316 µM, first compound 1 µM
[21] = second compound 0.316 µM, first compound 3.16 µM
[22] = second compound 0.316 µM, first compound 10 µM
[23] = second compound 1 µM, first compound 0.0316 µM
[24] = second compound 1 µM, first compound 0.1 µM
[25] = second compound 1 µM, first compound 0.316 µM
[26] = second compound 1 µM, first compound 1 µM
[27] = second compound 1 µM, first compound 3.16 µM
[28] = second compound 1 µM, first compound 10 µM
[29] = curve of first compound, second compound 0.00316 µM
[30] = curve of first compound, second compound 0.01 µM
[31] = second compound 0.00316 µM, first compound 0.0316 µM
[32] = second compound 0.00316 µM, first compound 0.1 µM
[33] = second compound 0.00316 µM, first compound 0.316 µM
[34] = second compound 0.00316 µM, first compound 1 µM
[35] = second compound 0.00316 µM, first compound 3.16 µM
[36] = second compound 0.00316 µM, first compound 10 µM
[37] = second compound 0.01 µM, first compound 0.0316 µM
[38] = second compound 0.01 µM, first compound 0.1 µM
[39] = second compound 0.01 µM, first compound 0.316 µM
[40] = second compound 0.01 µM, first compound 1 µM
[41] = second compound 0.01 µM, first compound 3.16 µM
[42] = second compound 0.01 µM, first compound 10 µM
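Note: spheroids exposed to compounds for seven days.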
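Throughout, for viability, T/C: 100% = DMSO vehicle control viability.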

C=CC(=O)N1CCN(c2nc(=O)n(-c3c(C)ccnc3C(C)C)c3nc(-c4c(O)cccc4F)c(F)cc23)C(C)C1 (stereo not drawn) + Cc1nc(NC(=O)N2CCCC2C(N)=O)sc1-c1ccnc(C(C)(C)C(F)(F)F)c1
< 0.0316 µM: IC50 (curve of first compound, second compound 10 µM)
> 10 µM: IC50 [1] | IC50 [2] | IC50 [3] | IC50 [4] | IC50 (curve of first compound, second compound 3.16 µM)
inactive: viability, T/C [5] 99.9% | viability, T/C [6] 101% | viability, T/C [7] 96.5% | viability, T/C [8] 106% | viability, T/C [9] 99.2% | viability, T/C [10] 96% | viability, T/C [11] 94.4% | viability, T/C [12] 94% | viability, T/C [13] 114% | viability, T/C [14] 86.3% | viability, T/C [15] 94.3% | viability, T/C [16] 92.8% | viability, T/C [17] 91.2% | viability, T/C [18] 90.2% | viability, T/C [19] 93.1% | viability, T/C [20] 98.8% | viability, T/C [21] 101% | viability, T/C [22] 101% | viability, T/C [23] 89% | viability, T/C [24] 89.4% | viability, T/C [25] 88.2% | viability, T/C [26] 97.3% | viability, T/C [27] 96.7% | viability, T/C [28] 89.5% | viability, T/C (second compound 3.16 µM, first compound 0.0316 µM) 67.5% | viability, T/C (second compound 3.16 µM, first compound 0.1 µM) 56.5% | viability, T/C (second compound 3.16 µM, first compound 0.316 µM) 51.9% | viability, T/C (second compound 3.16 µM, first compound 1 µM) 67.5% | viability, T/C (second compound 3.16 µM, first compound 3.16 µM) 67.9% | viability, T/C (second compound 3.16 µM, first compound 10 µM) 58.5% | viability, T/C (second compound 10 µM, first compound 0.0316 µM) 35.2% | viability, T/C (second compound 10 µM, first compound 0.1 µM) 32.4% | viability, T/C (second compound 10 µM, first compound 0.316 µM) 35.7% | viability, T/C (second compound 10 µM, first compound 1 µM) 32.9% | viability, T/C (second compound 10 µM, first compound 3.16 µM) 37.9% | viability, T/C (second compound 10 µM, first compound 10 µM) 34.2%

C=CC(=O)N1CCN(c2nc(=O)n(-c3c(C)ccnc3C(C)C)c3nc(-c4c(O)cccc4F)c(F)cc23)C(C)C1 (stereo not drawn) + CC(Nc1ccc2c(c1)OCCn1cc(N3C(=O)OCC3C(F)F)nc1-2)C(N)=O
inactive: viability, T/C [31] 111% | viability, T/C [32] 92.3% | viability, T/C [33] 97.2% | viability, T/C [34] 96% | viability, T/C [35] 105% | viability, T/C [36] 98.7% | viability, T/C [37] 98.3% | viability, T/C [38] 102% | viability, T/C [39] 97.8% | viability, T/C [40] 95.2% | viability, T/C [41] 102% | viability, T/C [42] 97.7% | viability, T/C [5] 110% | viability, T/C [6] 97.1% | viability, T/C [7] 104% | viability, T/C [8] 96.9% | viability, T/C [9] 106% | viability, T/C [10] 102% | viability, T/C [11] 104% | viability, T/C [12] 95.3% | viability, T/C [13] 102% | viability, T/C [14] 101% | viability, T/C [15] 118% | viability, T/C [16] 100% | viability, T/C [17] 83.7% | viability, T/C [18] 85.8% | viability, T/C [19] 86.8% | viability, T/C [20] 96.7% | viability, T/C [21] 87.5% | viability, T/C [22] 70% | viability, T/C [23] 55.2% | viability, T/C [24] 59.5% | viability, T/C [25] 54.8% | viability, T/C [26] 56.4% | viability, T/C [27] 66.7% | viability, T/C [28] 56.2%
> 10 µM: IC50 [29] | IC50 [30] | IC50 [1] | IC50 [2] | IC50 [3] | IC50 [4]

Cn1cnc2c(F)c(Nc3ccc(Br)cc3Cl)c(C(=O)NOCCO)cc21
1.38 µM and > 3 µM: IC50 (curve of compound)
inactive: viability, T/C (compound 0.00949 µM) 97.9% [middle of 4 runs] | viability, T/C (compound 0.03 µM) 92% [middle of 4 runs] | viability, T/C (compound 0.0949 µM) 89.5% [middle of 4 runs] | viability, T/C (compound 0.3 µM) 93.5% [middle of 4 runs]

CC1(C)CCC(Nc2ncc(C(F)(F)F)c(-c3c[nH]c4c(P(C)(C)=O)c(C#N)ccc34)n2)CN1 (stereo not drawn) + CC(Nc1ccc2c(c1)OCCn1cc(N3C(=O)OCC3C(F)F)nc1-2)C(N)=O
inactive: viability, T/C [31] 53.1% | viability, T/C [32] 45.8% | viability, T/C [33] 42.4% | viability, T/C [34] 48.7% | viability, T/C [35] 51.6% | viability, T/C [36] 29.3% | viability, T/C [37] 49.6% | viability, T/C [38] 47.2% | viability, T/C [39] 46.1% | viability, T/C [40] 44.1% | viability, T/C [41] 49.4% | viability, T/C [42] 25.4% | viability, T/C [5] 45% | viability, T/C [6] 40.9% | viability, T/C [7] 37.9% | viability, T/C [8] 38.6% | viability, T/C [9] 41% | viability, T/C [10] 29.1% | viability, T/C [11] 36.7% | viability, T/C [12] 31.6% | viability, T/C [13] 31.1% | viability, T/C [14] 31.7% | viability, T/C [15] 30.9% | viability, T/C [16] 14.8% | viability, T/C [17] 26.4% | viability, T/C [18] 25.3% | viability, T/C [19] 24.9% | viability, T/C [20] 23.1% | viability, T/C [21] 29.3% | viability, T/C [22] 8.87% | viability, T/C [23] 21.1% | viability, T/C [24] 20.6% | viability, T/C [25] 21.5% | viability, T/C [26] 21.9% | viability, T/C [27] 23.9% | viability, T/C [28] 3.07%
< 0.0316 µM: IC50 [30] | IC50 [1] | IC50 [2] | IC50 [3] | IC50 [4]
0.0316 µM: IC50 [29]

C#Cc1c(F)ccc2cc(O)cc(-c3ncc4c(N5CC6CCC(C5)N6)nc(OCC56CCCN5CC(F)C6)nc4c3F)c12 (stereo not drawn) + CC(Nc1ccc2c(c1)OCCn1cc(N3C(=O)OCC3C(F)F)nc1-2)C(N)=O
inactive: viability, T/C [31] 91.8% | viability, T/C [32] 96.8% | viability, T/C [33] 97.4% | viability, T/C [34] 95.5% | viability, T/C [35] 99.3% | viability, T/C [36] 99.3% | viability, T/C [37] 97.7% | viability, T/C [38] 99.9% | viability, T/C [39] 102% | viability, T/C [40] 110% | viability, T/C [41] 116% | viability, T/C [42] 98.9% | viability, T/C [5] 100% | viability, T/C [6] 113% | viability, T/C [7] 109% | viability, T/C [8] 99.1% | viability, T/C [9] 109% | viability, T/C [10] 104% | viability, T/C [11] 118% | viability, T/C [12] 94.5% | viability, T/C [13] 108% | viability, T/C [14] 104% | viability, T/C [15] 102% | viability, T/C [16] 97% | viability, T/C [17] 91% | viability, T/C [18] 81.6% | viability, T/C [19] 74.2% | viability, T/C [20] 78.8% | viability, T/C [21] 83% | viability, T/C [22] 76.9% | viability, T/C [23] 60.6% | viability, T/C [24] 62.2% | viability, T/C [25] 61.2% | viability, T/C [26] 58.9% | viability, T/C [27] 58.6% | viability, T/C [28] 45.6%
> 10 µM: IC50 [29] | IC50 [30] | IC50 [1] | IC50 [2] | IC50 [3] | IC50 [4]
